The source of these data is ChEMBL document CHEMBL1139683, “Pyridone derivatives as potent, orally bioavailable VLA-4 integrin antagonists” (Bioorg Med Chem Lett, 2006).

The target in one data set is Integrin alpha-4/beta-1 (Homo sapiens, UniProt P05556+P13612). The experiment in a line: Inhibition of integrin alpha-4-beta-1 receptor expressed in Jurkat J6 cells by SPA. It is filed as cell-based.
The species entered for a further data set is Rattus norvegicus. In words: Dose normalised AUC (0-8 hrs) in rat. It is filed as ADME, organism-based. More on the design: time < 8 hr. The following applies: in vivo.
Data set [1] is described as follows: Volume of distribution of steady state in rat. The class given is ADME, organism-based. The following applies: in vivo, read-out: Vss.
Data set [2] is described as follows: Bioavailability in Sprague-Dawley rat at 1 mg/kg, iv and 3 mg/kg, po. The conditions noted are these: in vivo. It is filed as ADME, organism-based.
Data set [3] can be described thus: Clearance in iv dosed rat. The class given is ADME, organism-based. The conditions noted are these: in vivo.
Data set [4] can be described thus: Half life in rat. It is filed as ADME, organism-based. The conditions noted are these: in vivo.

Chain of Integrin alpha-4/beta-1 (P05556 whole entry): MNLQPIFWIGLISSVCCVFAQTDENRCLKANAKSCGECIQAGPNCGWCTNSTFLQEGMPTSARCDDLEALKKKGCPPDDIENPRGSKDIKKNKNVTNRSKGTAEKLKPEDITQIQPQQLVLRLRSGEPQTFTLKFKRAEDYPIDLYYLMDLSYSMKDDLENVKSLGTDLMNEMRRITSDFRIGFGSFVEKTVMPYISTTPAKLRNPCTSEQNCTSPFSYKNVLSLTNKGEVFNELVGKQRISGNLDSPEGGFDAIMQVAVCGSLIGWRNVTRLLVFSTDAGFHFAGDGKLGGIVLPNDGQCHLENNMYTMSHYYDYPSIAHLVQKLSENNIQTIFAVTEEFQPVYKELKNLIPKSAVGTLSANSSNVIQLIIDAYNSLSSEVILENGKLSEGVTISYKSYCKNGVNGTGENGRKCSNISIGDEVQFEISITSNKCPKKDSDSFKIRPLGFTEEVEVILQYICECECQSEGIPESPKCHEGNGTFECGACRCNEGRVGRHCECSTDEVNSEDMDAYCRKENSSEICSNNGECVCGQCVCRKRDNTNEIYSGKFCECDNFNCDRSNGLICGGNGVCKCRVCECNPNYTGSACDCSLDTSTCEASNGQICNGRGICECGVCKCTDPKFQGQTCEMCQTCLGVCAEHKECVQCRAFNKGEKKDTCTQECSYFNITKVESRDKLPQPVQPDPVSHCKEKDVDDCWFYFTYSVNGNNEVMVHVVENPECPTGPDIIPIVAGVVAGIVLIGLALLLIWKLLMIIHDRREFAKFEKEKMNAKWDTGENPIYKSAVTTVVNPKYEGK
Chain of Integrin alpha-4/beta-1 (P13612 whole entry): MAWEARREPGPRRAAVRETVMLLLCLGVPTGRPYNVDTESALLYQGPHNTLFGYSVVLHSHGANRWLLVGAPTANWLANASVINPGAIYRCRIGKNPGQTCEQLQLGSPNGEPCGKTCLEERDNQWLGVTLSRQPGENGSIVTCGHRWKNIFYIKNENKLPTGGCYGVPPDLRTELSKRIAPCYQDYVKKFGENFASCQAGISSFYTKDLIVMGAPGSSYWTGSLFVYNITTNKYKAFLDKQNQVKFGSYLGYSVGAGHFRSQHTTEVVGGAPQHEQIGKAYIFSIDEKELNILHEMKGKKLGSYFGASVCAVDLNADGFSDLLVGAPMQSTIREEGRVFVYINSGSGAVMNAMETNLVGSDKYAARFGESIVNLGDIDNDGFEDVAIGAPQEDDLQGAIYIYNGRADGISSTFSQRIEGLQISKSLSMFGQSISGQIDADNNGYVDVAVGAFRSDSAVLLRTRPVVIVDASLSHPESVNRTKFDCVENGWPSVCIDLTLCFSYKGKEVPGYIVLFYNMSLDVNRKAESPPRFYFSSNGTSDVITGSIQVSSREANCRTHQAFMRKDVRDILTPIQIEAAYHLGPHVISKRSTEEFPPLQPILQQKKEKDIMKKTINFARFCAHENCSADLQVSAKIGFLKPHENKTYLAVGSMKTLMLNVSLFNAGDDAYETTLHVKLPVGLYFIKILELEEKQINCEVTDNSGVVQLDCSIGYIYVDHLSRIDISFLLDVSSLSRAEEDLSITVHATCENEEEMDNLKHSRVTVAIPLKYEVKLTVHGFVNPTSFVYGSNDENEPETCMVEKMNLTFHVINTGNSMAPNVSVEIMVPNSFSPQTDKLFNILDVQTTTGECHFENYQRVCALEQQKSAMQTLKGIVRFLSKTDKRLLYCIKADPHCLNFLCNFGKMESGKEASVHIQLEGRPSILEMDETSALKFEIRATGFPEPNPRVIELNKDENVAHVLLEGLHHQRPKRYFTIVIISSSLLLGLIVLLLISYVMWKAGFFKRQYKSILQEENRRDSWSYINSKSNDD

Turning to `COc1cc(-c2cccn(Cc3ccc(CCC(=O)O)cc3)c2=O)ccc1NC(=O)Nc1cc(C)ccc1C`, the Ki at Integrin alpha-4/beta-1 was 7.94 nM.

The molecule `CCOc1cc(NC(=O)Nc2ccccc2C)ccc1-c1cccn(Cc2ccc([C@@H](C)CC(=O)O)cc2)c1=O` gave a Ki at Integrin alpha-4/beta-1 of 5.01 nM.

On to `Cc1ccccc1NC(=O)Nc1ccc(-c2cccn(Cc3ccc([C@H](C)CC(=O)O)cc3)c2=O)c(Cl)c1`, for which affinity at Integrin alpha-4/beta-1 was put at a Ki of 1 nM.

On Integrin alpha-4/beta-1, `COc1cc(-c2cccn(Cc3ccc(CCC(=O)O)cc3)c2=O)ccc1NC(=O)Nc1ccc(C)cc1C` showed a Ki of 25.1 nM.

Take `CCc1cc(NC(=O)Nc2ccccc2C)ccc1-c1cccn(Cc2ccc([C@H](C)CC(=O)O)cc2)c1=O`: the Ki on Integrin alpha-4/beta-1 is 6.31 nM.

`COc1cc(-c2cccn(Cc3ccc(CCC(=O)O)cc3)c2=O)ccc1NC(=O)Nc1ccccc1` had a Ki on Integrin alpha-4/beta-1 of 1.58 nM. This Ki lies about 4-fold lower than the previous one.

`Cc1ccccc1NC(=O)Nc1ccc(-c2cccn(Cc3ccc([C@@H](C)CC(=O)O)cc3)c2=O)cc1C` gave a Ki at Integrin alpha-4/beta-1 of 20 nM.

Consider `Cc1ccccc1NC(=O)Nc1ccc(-c2cccn(Cc3ccc([C@@H](C)CC(=O)O)cc3)c2=O)c(OC(F)(F)F)c1`, for which the Ki on Integrin alpha-4/beta-1 was 20 nM.

Take `COc1cc(-c2cccn(Cc3ccc(CCC(=O)O)cc3)c2=O)ccc1NC(=O)Nc1cccc(C)c1C`: on Integrin alpha-4/beta-1, the Ki is 25.1 nM.

For `COc1cc(-c2cccn(Cc3ccc(CCC(=O)O)cc3)c2=O)ccc1NC(=O)Nc1ccccc1C`, in the data set filed under Rattus norvegicus, the AUC was 6 kg·min/L.

For `Cc1ccccc1NC(=O)Nc1ccc(-c2cccn(Cc3ccc([C@H](C)CC(=O)O)cc3)c2=O)cc1`, the Vd in data set [1] was 0.6 L/kg. Also, the bioavailability in data set [2] was 22%. The molecule further came in with a clearance in data set [3] of 16 mL/min/kg. The same molecule gave a Ki at Integrin alpha-4/beta-1 of 1 nM. In addition, the half-life in data set [4] was 1.3 h. Also, in the data set listed under Rattus norvegicus, the AUC was found to be 14 kg·min/L.

Regarding `CCc1cc(NC(=O)Nc2ccccc2C)ccc1-c1cccn(Cc2ccc([C@@H](C)CC(=O)O)cc2)c1=O`, affinity on Integrin alpha-4/beta-1 was put at a Ki of 50.1 nM. That is a double-digit nanomolar value.

In turn, `Cc1ccccc1NC(=O)Nc1ccc(-c2cccn(Cc3ccc([C@H](C)CC(=O)O)cc3)c2=O)c(C)c1` had an inhibition constant (Ki) at Integrin alpha-4/beta-1 of 1 nM.

For `Cc1ccccc1NC(=O)Nc1ccc(-c2cccn(Cc3ccc(CCC(=O)O)cc3)c2=O)cc1`, the Ki on Integrin alpha-4/beta-1 is 2.51 nM. The same molecule showed an AUC in the data set listed under Rattus norvegicus of 3 kg·min/L.

On to `Cc1ccccc1NC(=O)Nc1ccc(-c2cccn(Cc3ccc([C@@H](C)CC(=O)O)cc3)c2=O)c(C)c1`, for which affinity on Integrin alpha-4/beta-1 was put at a Ki of 2.51 nM. This lies in the single-digit nanomolar range.

In turn, `COc1cc(-c2cccn(Cc3ccc(CCC(=O)O)cc3)c2=O)ccc1NC(=O)Nc1ccccc1NC(C)=O` gave a Ki at Integrin alpha-4/beta-1 of 6.31 nM.

Regarding `Cc1ccccc1NC(=O)Nc1ccc(-c2cccn(Cc3ccc([C@@H](C)CC(=O)O)cc3)c2=O)cc1Cl`, the Ki on Integrin alpha-4/beta-1 was 25.1 nM.

The molecule `COc1ccccc1NC(=O)Nc1ccc(-c2cccn(Cc3ccc(CCC(=O)O)cc3)c2=O)cc1OC` had a Ki on Integrin alpha-4/beta-1 of 6.31 nM.

In turn, `Cc1ccccc1NC(=O)Nc1ccc(-c2cccn(Cc3ccc([C@@H](C)CC(=O)O)cc3)c2=O)cc1` showed a Ki at Integrin alpha-4/beta-1 of 2.51 nM. Against the preceding molecule, the Ki is about 2.5-fold lower.

As to `COc1cc(-c2cccn(Cc3ccc(CCC(=O)O)cc3)c2=O)ccc1NC(=O)Nc1ccccc1Br`, the Ki on Integrin alpha-4/beta-1 was 5.01 nM.

With `COc1cc(-c2cccn(Cc3ccc([C@@H](C)CC(=O)O)cc3)c2=O)ccc1NC(=O)Nc1ccccc1C`, the affinity at Integrin alpha-4/beta-1 corresponds to a Ki of 1 nM.

As for `COc1cc(-c2cccn(Cc3ccc(CCC(=O)O)cc3)c2=O)ccc1NC(=O)Nc1ccccc1C(C)C`, on Integrin alpha-4/beta-1, the affinity corresponds to a Ki of 316 nM.

As to `CCOc1cc(NC(=O)Nc2ccccc2C)ccc1-c1cccn(Cc2ccc([C@H](C)CC(=O)O)cc2)c1=O`, at Integrin alpha-4/beta-1, the Ki is 2 nM.

In the case of `COc1cc(-c2cccn(Cc3ccc(CCC(=O)O)cc3)c2=O)ccc1NC(=O)Nc1c(C)cccc1C`, on Integrin alpha-4/beta-1, the affinity, expressed as Ki, was 2 nM.

Take `COc1cc(-c2cccn(Cc3ccc([C@H](C)CC(=O)O)cc3)c2=O)ccc1NC(=O)Nc1ccccc1C`: the Vd in data set [1] was 0.6 L/kg. The bioavailability in data set [2] is 121%. In data set [3], this molecule returned a clearance of 9 mL/min/kg. At Integrin alpha-4/beta-1, this molecule gave a Ki of 0.794 nM. Further, the half-life in data set [4] is 1.4 h. Moreover, the AUC in the data set filed under Rattus norvegicus is 154 kg·min/L.

Turning to `Cc1ccccc1NC(=O)Nc1ccc(-c2cccn(Cc3ccc([C@H](C)CC(=O)O)cc3)c2=O)cc1Cl`, the Ki at Integrin alpha-4/beta-1 is 0.794 nM.

Molecule `Cc1ccccc1NC(=O)Nc1ccc(-c2cccn(Cc3ccc([C@H](C)CC(=O)O)cc3)c2=O)c(OC(F)(F)F)c1` had a Ki at Integrin alpha-4/beta-1 of 3.98 nM.

`Cc1ccccc1NC(=O)Nc1ccc(-c2cccn(Cc3ccc([C@@H](C)CC(=O)O)cc3)c2=O)c(Cl)c1` showed a Ki on Integrin alpha-4/beta-1 of 2 nM.

`Cc1ccccc1NC(=O)Nc1ccc(-c2cccn(Cc3ccc([C@H](C)CC(=O)O)cc3)c2=O)cc1C` gave a Ki at Integrin alpha-4/beta-1 of 2.51 nM.

What is called Ki is a dissociation constant, usually derived from enzyme kinetics or from competition with a known ligand. Higher therefore signals a looser hold on the target. What is called clearance is the rate of elimination divided by the concentration. A high value points to efficient removal. What is called half-life is how long it takes for the measured level to halve. Low readings indicate fast loss, high ones slow loss.
